From US20180289739A1, “Combination Therapy for Treating Proliferative Diseases” (BIONOMICS LIMITED, priority 2009, published 2018) come the findings set out here.

Molecules are shown by their SMILES.

Assay [1] deals with Human umbilical vein endothelial cells (HUVECs), normal quiescent type endothelial cells (Norm). Kind of assay: Proliferation Assay - Quiescent Endothelium (MTT). The class given is cell-based. The settings on record: HUVEC, 48 hrs. How it is done: Proliferation Assay—Quiescent Endothelium:
Human umbilical vein endothelial cells (CC-2519, Clonetics) were plated at 15000 cells/well in EBM2 (CC-3156, Clonetics)+0.5% FBS (CC-4101A, Clonetics)+GA-1000 (CC-4381A, Clonetics) in a 96 well plate in triplicate. Cells were cultured overnight at 37° C. 5% CO2. Medium was subsequently replaced with fresh medium including the compound or negative control. Cells were cultured for a period of 48 hrs. An MTT assay was performed to measure changes in cell numbers. Briefly, 20 μl of MTT reagent was added to cells containing 100 μl of EBM2+0.5% FBS and incubated at 37° C. for 2 hours. Absorbance was measured at 492 nm.

In assay [2] the test system is Human umbilical vein endothelial cells (HUVECs), tumour type activated endothelial cells (Tum). Kind of assay: Proliferation Assay - Activated Endothelium (MTT). The class given is cell-based. As to conditions: for IC50: Homo sapiens, HUVEC, tumour type activated endothelial cells, 48 hrs; for Potency against activated (tumour) versus quiescent (normal) endothelial cells: activated compared with quiescent endothelial cells. How it is done:
Proliferation Assay—Activated Endothelium:
Human umbilical vein endothelial cells (CC-2519, Clonetics) were plated at 2500 cells/well in EGM2 (CC-3162, Clonetics) in a 96 well plate in triplicate. Cells were cultured overnight at 37° C. 5% CO2. Medium was subsequently replaced with fresh medium including the compound or negative control. Cells were cultured for a period of 48 hrs. An MTT assay was performed to measure changes in cell numbers. Briefly, 20 μl of MTT reagent was added to cells containing 100 μl of EGM2 and incubated at 37° C. for 2 hours. Absorbance was measured at 492 nm.

Assay [3] has as its system MCF-7. Kind of assay: Growth inhibition of cancer cell line, Sulforhodamine B (SRB) or Systmex cell counting (CC) assay. The format is cell-based. The settings on record: Homo sapiens, MCF7, concentration required to inhibit net cell growth by 50%.
Assay [4] relates to MDA-MB-231 solid orthotopic tumours. Kind of assay: Tumour Growth Inhibition, MDA-MB-231 orthotopic tumours. The class given is in vivo, Balb/c nu/nu mice. The settings on record: 40 mg/kg i.v., two cycles; monitored up to 72 days; vs vehicle, p<0.001 from day 4 to Day 70. How it is done:
Tumour Growth Inhibition:
Balb/c nu/nu mice bearing MDA-MB-231 solid orthotopic tumours were treated with compound Example 2 at 40 mg/kg. Animals were i.v. dosed with a total of two cycles of Example 2 treatment. Each cycle was dosing on […] followed by a three week no-dosing period. Tumour growth represented as a ratio to initial tumour volume is shown over a total of 72-days.
Tumour growth as well as animal health were monitored for up to 72 days post-day 1 of treatment. […] Significant differences in tumour growth between Example 2 treated (n=64) and vehicle treated (n=20) animals were observed as early as day 4 (p<0.001; unpaired t-test; Prism® analysis) through to Day 70.

In assay [5] the test system is tubulin. Kind of assay: Tubulin polymerisation inhibition. The format is biochemical.

For `COc1ccc2c(C(=O)c3cc(OC)c(OC)c(OC)c3)coc2c1` [Comparator C], the IC50 – broadly, the concentration needed to halve the response being measured – in assay [1] is 10 to 100 nM; in assay [2] it was 10 to 100 nM; in assay [3], 55 nM.
Turning to `COc1cc(C(=O)c2c(C)oc3c(OP(=O)([O-])[O-])c(OC)ccc23)cc(OC)c1OC.[Na+].[Na+]` [Example 2, Disodium 6-methoxy-2-methyl-3-(3,4,5-trimethoxybenzoyl)benzofuran-7-yl Phosphate], the “Tumour growth (ratio to initial tumour volume)” value in assay [4] was “clearly show tumour growth inhibition”.
As to `COc1cc(C(=O)c2c(C)oc3c(O)c(OC)ccc23)cc(OC)c1OC` [Example 1, 2-Methyl-7-hydroxy-3-(3,4,5-trimethoxybenzoyl)-6-methoxybenzofuran], the IC50 in assay [1] is 10 to 100 nM; in assay [2], 0.1 to 1 nM; in assay [3], 2 nM. Besides, in assay [2], the “Potency against activated (tumour) versus quiescent (normal) endothelial cells” value is reported as “high potency towards tumour endothelial cells (activated) over normal endothelial cells (quiescent)”. In addition, the Tubulin polymerisation inhibition entry in assay [5] is on record as “potent tubulin polymerisation inhibitor”.
With `COc1ccc2c(C(=O)c3cc(OC)c(OC)c(OC)c3)c(Br)oc2c1` [Comparator D], the figures for the IC50 in assay [1], in assay [2] and in assay [3] were 100 to 1000 nM, 100 to 1000 nM and 500 nM, respectively.
With `COc1ccc(/C=C\c2cc(OC)c(OC)c(OC)c2)cc1O` [Combretastatin A4], the “Potency against activated (tumour) versus quiescent (normal) endothelial cells” value in assay [2] is “equally potent against quiescent and activated endothelial cells”.
